Test results published in US10405547B2, “Substituted cyclic amides as herbicides” (FMC Corporation, priority 2015, dated 2019).

Tests used:
Type in all cases: in vivo
[1] = tested on: barnyardgrass (Echinochloa crus-galli); experiment: Test A preemergence, barnyardgrass; details: 0 to 100 scale (0 no effect, 100 complete control)
Outline: (§1)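 Ratings use a 0–100 scale, where 0 means no effect and 100 means complete control, and come from visual comparison with untreated plants roughly 10 days after treatment. Compounds were applied in a surfactant-containing, non-phytotoxic solvent, either to soil after seeding or to foliage of small seedlings.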

[2] = tested on: galium (catchweed bedstraw, Galium aparine); experiment: Test A postemergence, galium; details: visual injury, 0 to 100 scale (0 no effect, 100 complete control), approximately 10 days
Outline: as §1

[3] = tested on: ragweed (common ragweed, Ambrosia elatior); experiment: Test A preemergence, ragweed; details: 0 to 100 scale (0 no effect, 100 complete control)
Outline: as §1

[4] = tested on: ragweed (common ragweed, Ambrosia elatior); experiment: Test A postemergence, ragweed; details: visual injury, 0 to 100 scale (0 no effect, 100 complete control), approximately 10 days
Outline: as §1

[5] = tested on: corn (Zea mays); experiment: Test A postemergence, corn; details: visual injury, 0 to 100 scale (0 no effect, 100 complete control), approximately 10 days
Outline: as §1

[6] = tested on: sedge, umbrella (small-flower umbrella sedge, Cyperus difformis); experiment: Test B flooded paddy test, umbrella sedge; details: 250 g ai/ha, applied to paddy water, visual rating after 13 to 15 days, scale 0 (no effect) to 100 (complete control)
Source text: (§2) At time of treatment, test pots were flooded to 3 cm above the soil surface, treated by application of test compounds directly to the paddy water, and then maintained at that water depth for the duration of the test. Treated plants and controls were maintained in a greenhouse for 13 to 15 days, after which time all species were compared to controls and visually evaluated. […] A dash (-) response means no test result.

[7] = tested on: foxtail, giant (Setaria faberii); experiment: Test A postemergence, giant foxtail; details: visual injury, 0 to 100 scale (0 no effect, 100 complete control), approximately 10 days
Outline: as §1

[8] = tested on: barnyardgrass (Echinochloa crus-galli); experiment: Test B flooded paddy test, barnyardgrass; details: 250 g ai/ha, applied to paddy water, visual rating after 13 to 15 days, scale 0 (no effect) to 100 (complete control)
Source text: as §2

[9] = tested on: blackgrass (Alopecurus myosuroides); experiment: Test A postemergence, blackgrass; details: visual injury, 0 to 100 scale (0 no effect, 100 complete control), approximately 10 days
Outline: as §1

[10] = tested on: wheat (Triticum aestivum); experiment: Test A postemergence, wheat; details: visual injury, 0 to 100 scale (0 no effect, 100 complete control), approximately 10 days
Outline: as §1

[11] = tested on: barnyardgrass (Echinochloa crus-galli); experiment: Test A postemergence, barnyardgrass; details: visual injury, 0 to 100 scale (0 no effect, 100 complete control), approximately 10 days
Outline: as §1

[12] = tested on: ducksalad (Heteranthera limosa); experiment: Test B flooded paddy test, ducksalad; details: 250 g ai/ha, applied to paddy water, visual rating after 13 to 15 days, scale 0 (no effect) to 100 (complete control)
Source text: as §2

[13] = tested on: ryegrass, Italian (Lolium multiflorum); experiment: Test A preemergence, Italian ryegrass; details: 0 to 100 scale (0 no effect, 100 complete control)
Outline: as §1

[14] = tested on: kochia (Kochia scoparia); experiment: Test A preemergence, kochia; details: 0 to 100 scale (0 no effect, 100 complete control)
Outline: as §1

[15] = tested on: rice (Oryza sativa); experiment: Test B flooded paddy test, rice; details: 250 g ai/ha, applied to paddy water, visual rating after 13 to 15 days, scale 0 (no effect) to 100 (complete control)
Source text: as §2

[16] = tested on: pigweed (Amaranthus retroflexus); experiment: Test A postemergence, pigweed; details: visual injury, 0 to 100 scale (0 no effect, 100 complete control), approximately 10 days
Outline: as §1

[17] = tested on: foxtail, giant (Setaria faberii); experiment: Test A preemergence, giant foxtail; details: 0 to 100 scale (0 no effect, 100 complete control)
Outline: as §1

[18] = tested on: ryegrass, Italian (Lolium multiflorum); experiment: Test A postemergence, Italian ryegrass; details: visual injury, 0 to 100 scale (0 no effect, 100 complete control), approximately 10 days
Outline: as §1

[19] = tested on: pigweed (Amaranthus retroflexus); experiment: Test A preemergence, pigweed; details: 0 to 100 scale (0 no effect, 100 complete control)
Outline: as §1

[20] = tested on: kochia (Kochia scoparia); experiment: Test A postemergence, kochia; details: visual injury, 0 to 100 scale (0 no effect, 100 complete control), approximately 10 days
Outline: as §1

SMILES	Plant response rating, Barnyardgrass ([1]; 125 g ai/ha)	Plant response rating, Barnyardgrass ([1]; 500 g ai/ha)	Plant response rating, Galium ([2]; 125 g ai/ha)	Plant response rating, Galium ([2]; 500 g ai/ha)	Plant response rating, Ragweed ([3]; 125 g ai/ha)	Plant response rating, Ragweed ([3]; 500 g ai/ha)	Plant response rating, Ragweed ([4]; 125 g ai/ha)	Plant response rating, Ragweed ([4]; 500 g ai/ha)	Plant response rating, Corn ([5]; 125 g ai/ha)	Plant response rating, Corn ([5]; 500 g ai/ha)	Plant response rating, Foxtail, Giant ([7]; 125 g ai/ha)	Plant response rating, Foxtail, Giant ([7]; 500 g ai/ha)	Plant response rating, Blackgrass ([9]; 125 g ai/ha)	Plant response rating, Blackgrass ([9]; 500 g ai/ha)	Plant response rating, Wheat ([10]; 125 g ai/ha)	Plant response rating, Wheat ([10]; 500 g ai/ha)	Plant response rating, Barnyardgrass ([11]; 125 g ai/ha)	Plant response rating, Barnyardgrass ([11]; 500 g ai/ha)	Plant response rating, Ryegrass, Italian ([13]; 125 g ai/ha)	Plant response rating, Ryegrass, Italian ([13]; 500 g ai/ha)	also measured
CN1CC(c2cccc(Sc3ccccc3)c2)C(C(=O)Nc2ccccc2F)C1=O (single isomer, unassigned) [Compound 50]	0	40	0	40	0	30	0	0	0	20	50	70	0	0	0	0	0	30	0	0	Plant response rating, Sedge, Umbrella (Flood) [6]: 0; Plant response rating, Barnyardgrass (Flood) [8]: 0; Plant response rating, Ducksalad (Flood) [12]: 70; Plant response rating, Kochia ([14]; 125 g ai/ha): 0; Plant response rating, Kochia ([14]; 500 g ai/ha): 30; Plant response rating, Rice (Flood) [15]: 0; Plant response rating, Pigweed ([16]; 125 g ai/ha): 0; Plant response rating, Pigweed ([16]; 500 g ai/ha): 30; Plant response rating, Foxtail, Giant ([17]; 125 g ai/ha): 90; Plant response rating, Foxtail, Giant ([17]; 500 g ai/ha): 90; Plant response rating, Ryegrass, Italian ([18]; 125 g ai/ha): 0; Plant response rating, Ryegrass, Italian ([18]; 500 g ai/ha): 0; Plant response rating, Pigweed ([19]; 125 g ai/ha): 20; Plant response rating, Pigweed ([19]; 500 g ai/ha): 20
O=C1NCC(c2cccc(Oc3ccc(F)cn3)c2)C1C(=O)Nc1cccc(F)c1F (single isomer, unassigned) [Compound 52]	70	90	40	60	40	80	0	60	50	70	70	90	30	40	0	40	70	80	30	40	Plant response rating, Sedge, Umbrella (Flood) [6]: 0; Plant response rating, Barnyardgrass (Flood) [8]: 40; Plant response rating, Ducksalad (Flood) [12]: 100; Plant response rating, Kochia ([14]; 125 g ai/ha): 70; Plant response rating, Kochia ([14]; 500 g ai/ha): 80; Plant response rating, Rice (Flood) [15]: 0; Plant response rating, Pigweed ([16]; 125 g ai/ha): 40; Plant response rating, Pigweed ([16]; 500 g ai/ha): 60; Plant response rating, Foxtail, Giant ([17]; 125 g ai/ha): 90; Plant response rating, Foxtail, Giant ([17]; 500 g ai/ha): 90; Plant response rating, Ryegrass, Italian ([18]; 125 g ai/ha): 30; Plant response rating, Ryegrass, Italian ([18]; 500 g ai/ha): 60; Plant response rating, Pigweed ([19]; 125 g ai/ha): 60; Plant response rating, Pigweed ([19]; 500 g ai/ha): 70
O=C1NCC(c2cccc(Cn3cncn3)c2)C1C(=O)Nc1cccc(F)c1F (centres unmarked) [Compound 32]	0	0	0	40	0	0	0	0	0	0	0	20	0	0	0	0	0	10	0	0	Plant response rating, Kochia ([20]; 125 g ai/ha): 0; Plant response rating, Kochia ([20]; 500 g ai/ha): 0; Plant response rating, Kochia ([14]; 125 g ai/ha): 0; Plant response rating, Kochia ([14]; 500 g ai/ha): 0; Plant response rating, Pigweed ([16]; 125 g ai/ha): 0; Plant response rating, Pigweed ([16]; 500 g ai/ha): 0; Plant response rating, Foxtail, Giant ([17]; 125 g ai/ha): 0; Plant response rating, Foxtail, Giant ([17]; 500 g ai/ha): 40; Plant response rating, Ryegrass, Italian ([18]; 125 g ai/ha): 0; Plant response rating, Ryegrass, Italian ([18]; 500 g ai/ha): 0; Plant response rating, Pigweed ([19]; 125 g ai/ha): 0; Plant response rating, Pigweed ([19]; 500 g ai/ha): 0
O=C1NCC(c2cccc(Oc3ncc(Cl)cn3)c2)C1C(=O)Nc1ccccc1F (centres unmarked) [Compound 55]	0	80	0	30	0	0	0	0	0	0	70	80	0	0	0	0	30	80	0	20	Plant response rating, Kochia ([20]; 125 g ai/ha): 0; Plant response rating, Kochia ([20]; 500 g ai/ha): 0; Plant response rating, Kochia ([14]; 125 g ai/ha): 0; Plant response rating, Kochia ([14]; 500 g ai/ha): 20; Plant response rating, Pigweed ([16]; 125 g ai/ha): 0; Plant response rating, Pigweed ([16]; 500 g ai/ha): 0; Plant response rating, Foxtail, Giant ([17]; 125 g ai/ha): 80; Plant response rating, Foxtail, Giant ([17]; 500 g ai/ha): 90; Plant response rating, Ryegrass, Italian ([18]; 125 g ai/ha): 0; Plant response rating, Ryegrass, Italian ([18]; 500 g ai/ha): 30; Plant response rating, Pigweed ([19]; 125 g ai/ha): 0; Plant response rating, Pigweed ([19]; 500 g ai/ha): 0
O=C1NCC(c2cccc(Oc3ncc(Cl)cn3)c2)C1C(=O)Nc1cccc(F)c1F (centres unmarked) [Compound 56]	30	70	0	20	0	0	0	0	0	0	0	60	0	0	0	0	0	30	0	0	Plant response rating, Kochia ([20]; 125 g ai/ha): 0; Plant response rating, Kochia ([20]; 500 g ai/ha): 0; Plant response rating, Kochia ([14]; 125 g ai/ha): 0; Plant response rating, Kochia ([14]; 500 g ai/ha): 0; Plant response rating, Pigweed ([16]; 125 g ai/ha): 0; Plant response rating, Pigweed ([16]; 500 g ai/ha): 0; Plant response rating, Foxtail, Giant ([17]; 125 g ai/ha): 0; Plant response rating, Foxtail, Giant ([17]; 500 g ai/ha): 0; Plant response rating, Ryegrass, Italian ([18]; 125 g ai/ha): 0; Plant response rating, Ryegrass, Italian ([18]; 500 g ai/ha): 0; Plant response rating, Pigweed ([19]; 125 g ai/ha): 0; Plant response rating, Pigweed ([19]; 500 g ai/ha): 0
